In patent publication US4068070A, “α-Cyanoamine compounds and a process for producing the same” (Fuji Chemical Industry Co., Ltd., priority 1974, dated 1978):

Key:
Format in all cases: in vivo, mongrel adult dogs
coronary sinus out flow = test: Effects on coronary sinus out flow
In short: (§1)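 Dog, mongrel, ~10 kg, thoracotomized, pentobarbital anesthesia. Dosing i.v. (brachial), vehicle CMC 0.2%, HCl pH 6 or saline. Coronary sinus outflow by electromagnetic flowmeter, coronary sinus pO2 by macro electrode, both via Morawitz cannulation.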

aortic blood flow = test: Effects on aortic blood flow
In short: (§2)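 Open-chest, pentobarbital-anesthetized mongrel dogs (male and female, about 10 kg) received compounds intravenously via the brachial vein; vehicles were 0.2% CMC suspension, HCl solution (pH 6) or physiological saline. Mean arterial pressure came from a carotid-aortic cannula transducer, aortic flow from an electromagnetic flowmeter at the aortic root.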

[1] = system: arterial mean blood pressure; test: Effects on arterial mean blood pressure
In short: as §2

heart rate = test: Effects on heart rate
In short: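 Adult mongrel dogs of both sexes were anesthetized with pentobarbital and thoracotomized. Test agents, suspended or dissolved in 0.2% CMC, pH 6 HCl solution or saline, were injected intravenously into the brachial vein. Hemodynamic and coronary sinus parameters were then recorded.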

[2] = system: coronary sinus oxygen tension; test: Effects on coronary sinus oxygen tension
In short: as §1

**Q.** `COc1ccc(C(C#N)N2CCNCC2)cc1OC` (stereo not shown) [Compound F] was tested. Which “Changes(%) of basal values, coronary sinus out flow” value (coronary sinus out flow; 2.0 mg/kg i.v., 1 min) did it give?
**A.** +2.9%

**Q.** And the “Changes(%) of basal values, coronary sinus out flow” value (coronary sinus out flow; 2.0 mg/kg i.v., 5 min)?
**A.** -1.7%

**Q.** And the “Changes(%) of basal values, coronary sinus out flow” value (coronary sinus out flow; 2.0 mg/kg i.v., 10 min)?
**A.** -4.4%

**Q.** And the “Changes(%) of basal values, coronary sinus out flow” value (coronary sinus out flow; 2.0 mg/kg i.v., 20 min)?
**A.** -3.1%

**Q.** And the “Changes(%) of basal values, coronary sinus out flow” value (coronary sinus out flow; 2.0 mg/kg i.v., 30 min)?
**A.** -1.0%

**Q.** What about the “Changes(%) of basal values, coronary sinus out flow” value (coronary sinus out flow; 2.0 mg/kg i.v., 40 min) of the same compound?
**A.** -0.2%

**Q.** What about the “Changes(%) of basal values, coronary sinus out flow” value (coronary sinus out flow; 2.0 mg/kg i.v., imm.) of the same compound?
**A.** +12.4%

**Q.** What about the “Changes(%) of basal values, coronary sinus out flow” value (coronary sinus out flow; 6.0 mg/kg i.v., 1 min) of the same compound?
**A.** +68.6%

**Q.** And the “Changes(%) of basal values, coronary sinus out flow” value (coronary sinus out flow; 6.0 mg/kg i.v., 5 min)?
**A.** +7.4%

**Q.** What about the “Changes(%) of basal values, coronary sinus out flow” value (coronary sinus out flow; 6.0 mg/kg i.v., 10 min) of the same compound?
**A.** +0.1%

**Q.** What about the “Changes(%) of basal values, coronary sinus out flow” value (coronary sinus out flow; 6.0 mg/kg i.v., 20 min) of the same compound?
**A.** -8.2%

**Q.** What about the “Changes(%) of basal values, coronary sinus out flow” value (coronary sinus out flow; 6.0 mg/kg i.v., 30 min) of the same compound?
**A.** -5.3%

**Q.** And the “Changes(%) of basal values, coronary sinus out flow” value (coronary sinus out flow; 6.0 mg/kg i.v., 40 min)?
**A.** -2.1%

**Q.** And the “Changes(%) of basal values, coronary sinus out flow” value (coronary sinus out flow; 6.0 mg/kg i.v., imm.)?
**A.** +74.5%

**Q.** And the “Effects on coronary sinus out flow (in words)” value (coronary sinus out flow; i.v., anesthetized dogs)?
**A.** increased markedly coronary sinus out flow immediately after administration, effect of which was, however, relatively transitory

**Q.** What about the “Changes (%) of basal values, aortic blood flow” value (from here on “Changes (%) … aortic blood flow”) (aortic blood flow; 2.0 mg/kg i.v., 1 min) of the same compound?
**A.** +0.7%

**Q.** What about the “Changes (%) … aortic blood flow” value (aortic blood flow; 2.0 mg/kg i.v., 5 min) of the same compound?
**A.** -4.1%

**Q.** And the “Changes (%) … aortic blood flow” value (aortic blood flow; 2.0 mg/kg i.v., 10 min)?
**A.** -1.2%

**Q.** What about the “Changes (%) … aortic blood flow” value (aortic blood flow; 2.0 mg/kg i.v., 20 min) of the same compound?
**A.** 0%

**Q.** And the “Changes (%) … aortic blood flow” value (aortic blood flow; 2.0 mg/kg i.v., 30 min)?
**A.** 0%

**Q.** What about the “Changes (%) … aortic blood flow” value (aortic blood flow; 2.0 mg/kg i.v., 40 min) of the same compound?
**A.** 0%

**Q.** What about the “Changes (%) … aortic blood flow” value (aortic blood flow; 2.0 mg/kg i.v., imm.) of the same compound?
**A.** +9.2%

**Q.** And the “Changes (%) … aortic blood flow” value (aortic blood flow; 6.0 mg/kg i.v., 1 min)?
**A.** +12.1%

**Q.** What about the “Changes (%) … aortic blood flow” value (aortic blood flow; 6.0 mg/kg i.v., 5 min) of the same compound?
**A.** -2.2%

**Q.** What about the “Changes (%) … aortic blood flow” value (aortic blood flow; 6.0 mg/kg i.v., 10 min) of the same compound?
**A.** -2.0%

**Q.** And the “Changes (%) … aortic blood flow” value (aortic blood flow; 6.0 mg/kg i.v., 20 min)?
**A.** -1.2%

**Q.** What about the “Changes (%) … aortic blood flow” value (aortic blood flow; 6.0 mg/kg i.v., 30 min) of the same compound?
**A.** 0%

**Q.** And the “Changes (%) … aortic blood flow” value (aortic blood flow; 6.0 mg/kg i.v., 40 min)?
**A.** 0%

**Q.** And the “Changes (%) … aortic blood flow” value (aortic blood flow; 6.0 mg/kg i.v., imm.)?
**A.** +20.5%

**Q.** And the “Effects on aortic blood flow (in words)” value (aortic blood flow; i.v., anesthetized dogs)?
**A.** an increase in blood flow immediately after administration, followed by a decrease in blood flow

**Q.** What about the “Changes (%) of basal values, arterial mean blood pressure” value ([1]; 2.0 mg/kg i.v., 1 min) of the same compound?
**A.** -1.3%

**Q.** And the “Changes (%) of basal values, arterial mean blood pressure” value ([1]; 2.0 mg/kg i.v., 5 min)?
**A.** -4.9%

**Q.** What about the “Changes (%) of basal values, arterial mean blood pressure” value ([1]; 2.0 mg/kg i.v., 10 min) of the same compound?
**A.** -3.3%

**Q.** And the “Changes (%) of basal values, arterial mean blood pressure” value ([1]; 2.0 mg/kg i.v., 20 min)?
**A.** -2.1%

**Q.** And the “Changes (%) of basal values, arterial mean blood pressure” value ([1]; 2.0 mg/kg i.v., 30 min)?
**A.** -0.4%

**Q.** And the “Changes (%) of basal values, arterial mean blood pressure” value ([1]; 2.0 mg/kg i.v., 40 min)?
**A.** 0%

**Q.** What about the “Changes (%) of basal values, arterial mean blood pressure” value ([1]; 2.0 mg/kg i.v., imm.) of the same compound?
**A.** +2.3%

**Q.** And the “Changes (%) of basal values, arterial mean blood pressure” value ([1]; 6.0 mg/kg i.v., 1 min)?
**A.** +15.8%

**Q.** What about the “Changes (%) of basal values, arterial mean blood pressure” value ([1]; 6.0 mg/kg i.v., 5 min) of the same compound?
**A.** -9.3%

**Q.** What about the “Changes (%) of basal values, arterial mean blood pressure” value ([1]; 6.0 mg/kg i.v., 10 min) of the same compound?
**A.** -12.5%

**Q.** And the “Changes (%) of basal values, arterial mean blood pressure” value ([1]; 6.0 mg/kg i.v., 20 min)?
**A.** -10.0%

**Q.** What about the “Changes (%) of basal values, arterial mean blood pressure” value ([1]; 6.0 mg/kg i.v., 30 min) of the same compound?
**A.** -5.2%

**Q.** And the “Changes (%) of basal values, arterial mean blood pressure” value ([1]; 6.0 mg/kg i.v., 40 min)?
**A.** -2.8%

**Q.** And the “Changes (%) of basal values, arterial mean blood pressure” value ([1]; 6.0 mg/kg i.v., imm.)?
**A.** +16.0%

**Q.** And the “Effects on arterial mean blood pressure (in words)” value ([1]; i.v., anesthetized dogs)?
**A.** an increase in blood pressure was observed immediately after administration, but thereafter, a long duration hypotensive effect was observed

**Q.** What about the “Changes(%) of basal values, heart rate” value (heart rate; 2.0 mg/kg i.v., 1 min) of the same compound?
**A.** +2.6%

**Q.** What about the “Changes(%) of basal values, heart rate” value (heart rate; 2.0 mg/kg i.v., 5 min) of the same compound?
**A.** -1.5%

**Q.** What about the “Changes(%) of basal values, heart rate” value (heart rate; 2.0 mg/kg i.v., 10 min) of the same compound?
**A.** -2.3%

**Q.** And the “Changes(%) of basal values, heart rate” value (heart rate; 2.0 mg/kg i.v., 20 min)?
**A.** -1.8%

**Q.** And the “Changes(%) of basal values, heart rate” value (heart rate; 2.0 mg/kg i.v., 30 min)?
**A.** -0.7%

**Q.** And the “Changes(%) of basal values, heart rate” value (heart rate; 2.0 mg/kg i.v., 40 min)?
**A.** 0%

**Q.** And the “Changes(%) of basal values, heart rate” value (heart rate; 2.0 mg/kg i.v., imm.)?
**A.** +1.4%

**Q.** And the “Changes(%) of basal values, heart rate” value (heart rate; 6.0 mg/kg i.v., 1 min)?
**A.** +3.7%

**Q.** What about the “Changes(%) of basal values, heart rate” value (heart rate; 6.0 mg/kg i.v., 5 min) of the same compound?
**A.** -2.2%

**Q.** What about the “Changes(%) of basal values, heart rate” value (heart rate; 6.0 mg/kg i.v., 10 min) of the same compound?
**A.** -3.6%

**Q.** And the “Changes(%) of basal values, heart rate” value (heart rate; 6.0 mg/kg i.v., 20 min)?
**A.** -3.3%

**Q.** What about the “Changes(%) of basal values, heart rate” value (heart rate; 6.0 mg/kg i.v., 30 min) of the same compound?
**A.** -2.0%

**Q.** And the “Changes(%) of basal values, heart rate” value (heart rate; 6.0 mg/kg i.v., 40 min)?
**A.** -1.4%

**Q.** What about the “Changes(%) of basal values, heart rate” value (heart rate; 6.0 mg/kg i.v., imm.) of the same compound?
**A.** -7.2%

**Q.** What about the “Effects on heart rate (in words)” value (heart rate; i.v., anesthetized dogs) of the same compound?
**A.** slight negative chronotropic effects accompanied by an increase in heart rate immediately after administration

**Q.** What about the “Changes(%) of basal values, coronary sinus oxygen tension” value ([2]; 2.0 mg/kg i.v., 1 min) of the same compound?
**A.** +1.4%

**Q.** And the “Changes(%) of basal values, coronary sinus oxygen tension” value ([2]; 2.0 mg/kg i.v., 5 min)?
**A.** -1.1%

**Q.** What about the “Changes(%) of basal values, coronary sinus oxygen tension” value ([2]; 2.0 mg/kg i.v., 10 min) of the same compound?
**A.** -1.4%

**Q.** What about the “Changes(%) of basal values, coronary sinus oxygen tension” value ([2]; 2.0 mg/kg i.v., 20 min) of the same compound?
**A.** -0.8%

**Q.** And the “Changes(%) of basal values, coronary sinus oxygen tension” value ([2]; 2.0 mg/kg i.v., 30 min)?
**A.** 0%

**Q.** And the “Changes(%) of basal values, coronary sinus oxygen tension” value ([2]; 2.0 mg/kg i.v., 40 min)?
**A.** 0%

**Q.** What about the “Changes(%) of basal values, coronary sinus oxygen tension” value ([2]; 2.0 mg/kg i.v., imm.) of the same compound?
**A.** +10.9%

**Q.** And the “Changes(%) of basal values, coronary sinus oxygen tension” value ([2]; 6.0 mg/kg i.v., 1 min)?
**A.** +20.3%

**Q.** What about the “Changes(%) of basal values, coronary sinus oxygen tension” value ([2]; 6.0 mg/kg i.v., 5 min) of the same compound?
**A.** +3.9%

**Q.** And the “Changes(%) of basal values, coronary sinus oxygen tension” value ([2]; 6.0 mg/kg i.v., 10 min)?
**A.** +1.0%

**Q.** What about the “Changes(%) of basal values, coronary sinus oxygen tension” value ([2]; 6.0 mg/kg i.v., 20 min) of the same compound?
**A.** -4.1%

**Q.** What about the “Changes(%) of basal values, coronary sinus oxygen tension” value ([2]; 6.0 mg/kg i.v., 30 min) of the same compound?
**A.** -1.2%

**Q.** And the “Changes(%) of basal values, coronary sinus oxygen tension” value ([2]; 6.0 mg/kg i.v., 40 min)?
**A.** -0.3%

**Q.** What about the “Changes(%) of basal values, coronary sinus oxygen tension” value ([2]; 6.0 mg/kg i.v., imm.) of the same compound?
**A.** +20.1%

**Q.** And the “Effects on coronary sinus oxygen tension (in words)” value ([2]; i.v., anesthetized dogs)?
**A.** slightly transitory as compared with those of compounds as mentioned above

**Q.** And the increased oxygen tension ([2]; i.v., anesthetized dogs)?
**A.** about 20%
